Laboratory results from publication PMC11363900, “A single-pass type I membrane protein, mannose-specific L-type lectin, potentially involved in the adhesion and invasion of Cryptosporidium parvum” (Parasite, 2024).

Target: T1, CpLTL (GST-CpLTL) (Cryptosporidium parvum, UniProt Q5CWG8)
T1 construct: gene cgd6_5140; lectin-leg-like domain (nucleotides 130-852 of the ORF; domain 44-284 aa of 469), without signal peptide and TM, GST fusion kept (pGEX-4T-1), E. coli Rosetta (DE3), about 48 kDa
Assay: competition ELISA, immobilised GST-CpLTL, binding of horseradish peroxidase (mannose-rich glycoprotein), OD405
Conditions: 100 mM mannose, 50 μg/mL HRP, PBS, 4 °C overnight; competitive with HRP glycan

T1 sequence (Q5CWG8 entry or part of it): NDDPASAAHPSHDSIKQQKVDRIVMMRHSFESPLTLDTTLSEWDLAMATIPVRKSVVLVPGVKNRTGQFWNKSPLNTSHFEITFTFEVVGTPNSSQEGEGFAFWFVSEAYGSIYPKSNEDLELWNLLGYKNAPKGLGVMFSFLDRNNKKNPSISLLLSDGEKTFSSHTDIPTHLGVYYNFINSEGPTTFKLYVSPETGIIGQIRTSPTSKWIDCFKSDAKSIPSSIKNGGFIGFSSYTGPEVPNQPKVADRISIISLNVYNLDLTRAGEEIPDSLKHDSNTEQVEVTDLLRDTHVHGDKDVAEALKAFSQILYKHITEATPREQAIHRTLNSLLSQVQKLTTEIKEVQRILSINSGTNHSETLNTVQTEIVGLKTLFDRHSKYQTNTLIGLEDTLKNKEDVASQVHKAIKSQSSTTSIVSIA

For OC[C@H]1OC(O)[C@@H](O)[C@@H](O)[C@@H]1O (stereo partly shown) [mannose], the “competition ELISA, immobilised GST-CpLTL, binding of horseradish peroxidase (man)” value was “Mannose showed competitive inhibition on the binding of HRP to GST-CpLTL protein”.
